Test results taken from US11827628B2, “Compositions and methods for inhibition of the JAK pathway” (Rigel Pharmaceuticals, Inc., priority 2005, dated 2023).
Where two headings read alike, the source gives them in different places.

Key:
[1] = test system: up-regulation of ICAM-1 (CD54) by IFNγ in U937 human monocytic cells; assay: U937 IFNγ ICAM1 FACS Assay; type: cell-based; conditions: ICAM-1 expression by FACS, read-out: IC50, Example 44
Method in brief: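 U937 cells in 10% FCS RPMI were preincubated 30 min at 37 °C with an 8-point, 3-fold compound dilution series in duplicate, then stimulated with IFNγ for 18–24 h. Surface ICAM-1 was stained with APC anti-ICAM-1 and read by flow cytometry as geometric mean on live-gated cells. EC50 was derived.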

[2] = test system: IL-4 stimulated expression of CD23 in human Ramos B cells (JAK-1 and JAK-3); assay: Assay for Ramos B-Cell Line Stimulated with IL-4 (CD23 upregulation, FACS); type: cell-based; conditions: read-out: IC50, Example 41
Method in brief: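 Human Ramos B cells (5×10^4 per point, RPMI 5% serum) pre-incubated 1 h at 37 °C with compound or DMSO, then stimulated with IL-4 at 50 units/mL final for 20-24 h. CD23 upregulation measured by anti-CD23-PE staining and flow cytometry; IC50 derived.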

[3] = Homo sapiens, U-937, U937 cells stimulated with IFNγ
[4] = Homo sapiens, Ramos, Ramos B-cell line stimulated with IL-4, CD23 expression by FACS
[5] = U937 cells stimulated with IFNγ
[6] = Ramos B cells stimulated with IL-4, CD23 expression by FACS

| Compound | IC50 [1, 3] | IC50 [2, 4] | IC50 [1, 5] | IC50 [2, 6] | IC50 ([2]; Homo sapiens, Ramos, Ramos B cells stimulated with IL-4, CD23 expression by FACS) |
| --- | --- | --- | --- | --- | --- |
| C=CCNC(=O)COc1ccc(Nc2nc(Nc3ccc(C)c(S(N)(=O)=O)c3)ncc2F)cc1 [Compound I-159, N4-(4-Allylaminocarbonylmethoxyphenyl)-N2-(3-aminosulfonyl-4-methylphenyl)-5-fluoro-2,4-pyrimidinediamine] | 1630 nM | 338 nM |  |  |  |
| Cc1cnc(Nc2cccc(S(N)(=O)=O)c2)nc1Nc1ccc(OCC(N)=O)cc1 [Compound I-109, N4-(4-Aminocarbonylmethoxyphenyl)-N2-(3-aminosulfonylphenyl)-5-methyl-2,4-pyrimidinediamine] | 9940 nM | 305 nM |  |  |  |
| Cc1cnc(Nc2ccc(S(N)(=O)=O)cc2)nc1Nc1ccc(OCC(N)=O)cc1 [Compound I-108, N4-(4-Aminocarbonylmethoxyphenyl)-N2-(4-aminosulfonylphenyl)-5-methyl-2,4-pyrimidinediamine] | 3970 nM | 145 nM |  |  |  |
| Cc1ccc(Nc2ncc(F)c(Nc3ccc(OCC#N)c(CO)c3)n2)cc1S(N)(=O)=O [Compound I-51, N2-(3-Aminosulfonyl-4-methylphenyl)-N4-(4-cyanomethoxy-3-hydroxymethylphenyl)-5-fluoro-2,4-pyrimidinediamine] | 32200 nM | 263 nM |  |  |  |
| CNC(=O)COc1ccc(Nc2nc(Nc3cccc(S(N)(=O)=O)c3)ncc2C)cc1Cl [Compound I-150, N2-(3-Aminosulfonylphenyl)-N4-(3-chloro-4-methylaminocarbonylmethoxyphenyl)-5-methyl-2,4-pyrimidinediamine] | 10500 nM | 65.7 nM |  |  |  |
| COc1cc(Nc2nc(Nc3ccc(S(N)(=O)=O)cc3)ncc2F)cc(OCC#N)c1OC [Compound I-1, N2-(4-Aminosulphonylphenyl)-N4-(3-cyanomethoxy-4,5-dimethoxyphenyl)-5-fluoro-2,4-pyrimidinediamine] | 35300 nM | 366 nM |  |  |  |
| Cc1ccc(Nc2ncc(F)c(Nc3ccc(OCc4cccnc4)cc3)n2)cc1S(N)(=O)=O [Compound I-178, N2-(3-Aminosulfonyl-4-methylphenyl)-5-fluoro-N4-[4-(3-pyridylmethoxy)phenyl]-2,4-pyrimidinediamine] | 118 nM | 23.5 nM |  |  |  |
| Cc1ccc(Nc2ncc(F)c(Nc3ccc(OCC(N)=O)c(F)c3)n2)cc1S(N)(=O)=O [Compound I-102, N4-(4-Aminocarbonylmethoxy-3-fluorophenyl)-N2-(3-aminosulfonyl-4-methylphenyl)-5-fluoro-2,4-pyrimidinediamine] | 15600 nM | 219 nM |  |  |  |
| CNC(=O)COc1ccc(Nc2nc(Nc3ccc(C)c(S(N)(=O)=O)c3)ncc2C)cc1F [Compound I-156, N2-(3-Aminosulfonyl-4-methylphenyl)-N4-(3-fluoro-4-methylaminocarbonylmethoxyphenyl)-5-methyl-2,4-pyrimidinediamine] | 2620 nM | 65.5 nM |  |  |  |
| Cc1cnc(Nc2cccc(S(N)(=O)=O)c2)nc1Nc1ccc(OCC(=O)N(C)C)c(Cl)c1 [Compound I-135, N2-(3-Aminosulfonylphenyl)-N4-(3-chloro-4-dimethylaminocarbonylmethoxyphenyl)-5-methyl-2,4-pyrimidinediamine] | 1830 nM | 112 nM |  |  |  |
| Cc1ccc(Nc2ncc(F)c(Nc3cnc4c(c3)OC(C)(C)C(=O)N4CC#N)n2)cc1S(N)(=O)=O [Compound V-14, N2-(3-Aminosulfonyl-4-methylphenyl)-N4-[2,2-dimethyl-3-oxo-4-cyanomethyl-5-pyrid[1,4]oxazin-7-yl]-5-fluoro-2,4-pyrimidinediamine] |  |  | 6850 nM | 197 nM |  |
| Cc1cnc(Nc2ccc(Cl)c(S(N)(=O)=O)c2)nc1Nc1ccc(OCC(=O)N(C)C)c(Cl)c1 [Compound I-141, N2-(3-Aminosulfonyl-4-chlorophenyl)-N4-(3-chloro-4-dimethylaminocarbonylmethoxyphenyl)-5-methyl-2,4-pyrimidinediamine] |  | 162 nM |  |  |  |
| NC(=O)COc1ccc(Nc2nc(Nc3cccc(S(N)(=O)=O)c3)ncc2F)cc1F [Compound I-101, N4-(4-Aminocarbonylmethoxy-3-fluorophenyl)-N2-(3-aminosulfonylphenyl)-5-fluoro-2,4-pyrimidinediamine] | 36600 nM | 328 nM |  |  |  |
| Cc1ccc(Nc2nc(Nc3cccc(S(N)(=O)=O)c3)ncc2F)cc1OCCN1CCOCC1 [Compound I-203, N2-(3-Aminosulfonylphenyl)-5-fluoro-N4-[4-methyl-3-(2-morpholinoethyloxy)phenyl]-2,4-pyrimidinediamine] | 3130 nM | 265 nM |  |  |  |
| Cc1nnc(COc2ccc(Nc3nc(Nc4ccc(C)c(S(N)(=O)=O)c4)ncc3F)cc2)o1 [Compound I-279, N2-(3-Aminosulfonyl-4-methylphenyl)-5-fluoro-N4-[4-(5-methyl-1,3,4-oxadiazol-2-yl)methoxyphenyl]-2,4-pyrimidinediamine] | 918 nM | 123 nM |  |  |  |
| Cc1ccc(Nc2ncc(F)c(Nc3ccc(Oc4cccnc4)cc3)n2)cc1S(N)(=O)=O [II-12, N2-(3-Aminosulfonyl-4-methylphenyl)-5-fluoro-N4-[4-(3-pyridyloxy)phenyl]-2,4-pyrimidinediamine] | 1190 nM | 56.3 nM |  |  |  |
| Cc1cc(COc2ccc(Nc3nc(Nc4cccc(S(N)(=O)=O)c4)ncc3F)cc2)no1 [Compound I-230, N2-(3-Aminosulfonylphenyl)-5-fluoro-N4-[4-(5-methylisoxazol-3-yl)methyleneoxyphenyl]-2,4-pyrimidinediamine] | 465 nM | 84.3 nM |  |  |  |
| NS(=O)(=O)c1ccc(Nc2ncc(F)c(Nc3ccc(OCCN4CCOCC4)cc3)n2)cc1 [Compound I-205, N2-(4-Aminosulfonylphenyl)-5-fluoro-N4-[4-(2-morpholinoethyloxy)phenyl)-2,4-pyrimidinediamine] |  | 315 nM |  |  |  |
| COC(=O)c1ccc(Nc2nc(Nc3ccc(F)c(S(N)(=O)=O)c3)ncc2F)s1 [IX-48, N2-(3-Aminosulfonyl-4-fluorophenyl)-5-fluoro-N4-(5-methoxycarbonyl-thiophene-2-yl)-2,4-pyrimidinediamine] |  |  |  |  | 258 nM |
| COc1ccc(CN2C(=O)C(C)Oc3ccc(Nc4nc(Nc5ccc(S(N)(=O)=O)cc5)ncc4F)cc32)cc1 (racemic) [Compound V-4, Racemic N2-(4-Aminosulphonylphenyl)-5-fluoro-N4-[2-methyl-3-oxo-4-(4-methoxybenzyl)-benz[1,4]oxazin-6-yl]-2,4-pyrimidinediamine] |  |  |  | 108 nM |  |

Results, then the compound that gave them:

| IC50 [1, 3] | IC50 [2, 4] | IC50 [1, 5] | IC50 [2, 6] | IC50 ([2]; Homo sapiens, Ramos, Ramos B cells stimulated with IL-4, CD23 expression by FACS) | Compound |
| --- | --- | --- | --- | --- | --- |
| 544 nM | 36.6 nM |  |  |  | N#CCCc1ccc(Nc2nc(Nc3cccc(S(N)(=O)=O)c3)ncc2F)cc1F [III-18, N2-(3-Aminosulfonylphenyl)-N4-[4-(2-cyanoethyl)-3-fluorophenyl]-5-fluoro-2,4-pyrimidinediamine] |
|  |  | 2430 nM | 230 nM |  | NS(=O)(=O)c1cccc(Nc2ncc(F)c(Nc3ccc(CN4CCOCC4)cc3)n2)c1 [III-103, N2-(3-Aminosulfonylphenyl)-5-fluoro-N4-(4-N-morpholinomethylenephenyl)-2,4-pyrimidinediamine] |
| 935 nM | 95.2 nM |  |  |  | Cc1ccc(Nc2ncc(F)c(Nc3ccc(Cc4ccncc4)cc3)n2)cc1S(N)(=O)=O [III-74, N2-(3-Aminosulfonyl-4-methylphenyl)-5-fluoro-N4-[4-(4-pyridinylmethyl)phenyl]-2,4-pyrimidinediamine] |
| 444 nM | 45.4 nM |  |  |  | N#CCCc1ccc(Nc2nc(Nc3cccc(S(N)(=O)=O)c3)ncc2F)cc1Cl [III-22, N2-(3-Aminosulfonylphenyl)-N4-[3-chloro-4-(2-cyanoethyl)phenyl]-5-fluoro-2,4-pyrimidinediamine] |
| 2040 nM | 141 nM |  |  |  | Cc1ccc(Nc2ncc(F)c(NCCc3ccc(-n4ccnc4)cc3)n2)cc1S(N)(=O)=O [III-88, N2-(3-Aminosulfonyl-4-methylphenyl)-5-fluoro-N4-[4-(1-imidazolyl)phenethyl]-2,4-pyrimidinediamine] |
|  |  | 2160 nM | 242 nM |  | Cc1ccc(Nc2ncc(F)c(Nc3ccc(CN4CCOCC4)cc3)n2)cc1S(N)(=O)=O [III-104, N2-(3-Aminosulfonyl-4-methylphenyl)-5-fluoro-N4-(4-N-morpholinomethylenephenyl)-2,4-pyrimidinediamine] |
|  |  | 492 nM | 42.8 nM |  | Cc1noc(CCc2ccc(Nc3nc(Nc4cccc(S(N)(=O)=O)c4)ncc3F)cc2)n1 [III-106, N2-(3-Aminosulfonylphenyl)-5-fluoro-N4-[4-(3-methyl-1,2,4-oxadiazol-5-yl)ethylenephenyl]-2,4-pyrimidinediamine] |
|  |  | 14500 nM | 53.3 nM |  | COc1ccc(Nc2nc(Nc3cccc(S(=O)(=O)NN4CCC(C)CC4)c3)ncc2F)cc1Cl [VI-9, N4-(3-Chloro-4-methoxyphenyl)-5-fluoro-N2-[3-(4-methylpipendin-1-yl)aminosulfonylphenyl]-2,4-pyrimidinediamine] |
|  |  | 13600 nM | 247 nM |  | NS(=O)(=O)c1cccc(Nc2ncc(F)c(Nc3ccc(CN4CCS(=O)(=O)CC4)cc3)n2)c1 [III-110, N2-(3-Aminosulfonylphenyl)-5-fluoro-N4-{4-[(1,1-dioxothiomorpholin-4-yl-)methyl]phenyl}-2,4-pyrimidinediamine] |
|  |  |  | 220 nM |  | N4-(3,4-Dichlorophenyl)-5-fluoro-N2-[3-(4-methylpipendin-1-yl)aminosulfonylphenyl]-2,4-pyrimidinediamine [VI-10] |
